Data: publication PMC8894159, “Paltusotine, a novel oral once-daily nonpeptide SST2 receptor agonist, suppresses GH and IGF-1 in healthy volunteers” (Pituitary, 2022)
Where two headings read alike, the source gives them in different places.

Tests used:
[1] = Single ascending dose plasma pharmacokinetics in healthy volunteers; type: in vivo; settings: human
Experimental: In the single-dose phase, participants were randomized 6:2 to paltusotine (1.25, 2.5, 5, 10, 20, 40, and 60 mg) or placebo in 7 cohorts (S1 to S7). Cohorts comparing oral bioavailability of solution versus capsules and the effect of a standardized high-fat, high-calorie breakfast on oral bioavailability of the capsule formulation employed the 10 mg dose level. In the multiple-dose phase, participants were randomized 6:3 to once-daily oral paltusotine capsules or placebo at doses of 5 mg for 7 days (M1, Day Last = Day 7), and 10, 20, and 30 mg daily for 10 days (M2, M3, M4, Day Last = Day 10). The initial starting dose of 1.25 mg in the single-dose phase was selected for this study based on nonclinical pharmacologic activity, pharmacokinetics, and safety studies. Subsequent doses were either specified in the protocol or were selected by the safety review committee responsible for the safety oversight of the study.
Single-dose cohorts: Plasma samples were collected on Day 1 (pre-dose, every 15 min up to 90 min post-dose, then at 2, 3, 4, 6, 8, 10, 12, 18, 24, 48, 72, 96, 120, and 144 h post-dose). Multiple-dose cohorts: For the 5 mg cohort, plasma samples were collected on Day 1 (pre-dose, every 15 min up to 90 min post-dose, then at 2, 3, 4, 6, 8, 10, 12, and 18 h post-dose), Days 2–6 (pre-dose and 2 h post-dose), Day 7 (same time points as Day 1, followed by samples at 18, 24, 48, 72, 96, 120, and 144 h post-dose). For all other multiple-dose cohorts, plasma samples were collected on Day 1 (pre-dose, every 15 min up to 90 min post-dose, then at 2, 3, 4, 6, 8, 10, 12, and 18 h post-dose), Days […] (same time points as Day 1, followed by samples at 18, 24, 48, 72, 96, 120, 144, 192, and 240 h post-dose).
Plasma pharmacokinetic sample analysis for paltusotine was determined using validated procedures by CPR Pharma Services (Thebarton, Australia). Briefly, plasma paltusotine concentrations were determined by high-pressure liquid chromatography (HPLC) coupled with tandem mass spectrometry detection (MS/MS). Deuterated paltusotine was used as an internal standard. Supported liquid extraction was used to extract paltusotine and the internal standard. The analyte was separated by HPLC using an ACE C18-AR column (Advanced Chromatography Technologies, Ltd, Aberdeen, Scotland), and the eluates were monitored by an API 4000™ LC–MS/MS System (Sciex, Framingham, MA) in positive multiple reaction monitoring mode. The extract was then assayed against a calibration curve. The data were acquired and integrated by the data acquisition software Analyst® (Sciex), linked directly to the API 4000™ LC–MS/MS System, and then processed using Watson LIMS™ software (Thermo Scientific, Waltham, MA), where applicable. The calibration range was 0.100 to 100 ng/mL using 100 μL of plasma, with a lower limit of quantification of 0.100 ng/mL. The inter-assay accuracy was 94% to 100%, and the inter-assay precision (% CV) was between 6.1% and 15%.
For assessing pharmacokinetics of paltusotine, the single-dose pharmacokinetic population included all randomized participants who received any amount of study drug with sufficient plasma concentration data. For the multiple-dose cohorts, only participants who received all doses were included. The relative bioavailability of the capsule formulation was determined by comparing its pharmacokinetic parameters with those of the solution formulation at the 10 mg dose. Food effect was determined at the same dose by comparing pharmacokinetic parameters in the fasting state to those when paltusotine was administered with a high-fat, high-calorie meal. For both formulation and food effect, ANOVA with treatment as a fixed effect and subject as a random effect was performed. Data for peak concentration (Cmax), AUC0-last, and AUC0-inf were natural log-transformed.

[2] = design: method as in doi:10.1530/endoabs.70.AEP627; settings: separate study, cited from earlier work
[3] = oral, single dose 40 mg capsules, fasted, mean ± SD
[4] = oral, single dose 60 mg capsules, fasted, mean ± SD
[5] = single dose 1.25 mg oral solution, fasted, mean ± SD
[6] = single dose 2.5 mg oral solution, fasted, mean ± SD
[7] = single dose 5 mg oral solution, fasted, mean ± SD
[8] = single dose 10 mg oral solution, fasted, mean ± SD
[9] = single dose 20 mg oral solution, fasted, mean ± SD

Cl.N#Cc1cccc(-c2ccc3ncc(-c4cc(F)cc(F)c4)c(N4CCC(N)CC4)c3c2)c1O [paltusotine, 3-[4-(4-Aminopiperidin-1-yl)-3-(3,5-difluorophenyl)quinolin-6-yl]-2-hydroxybenzonitrile hydrochloride]
half-life ([1]; oral, overall summary (abstract), read-out: half-life of elimination (converted)): ~30 h
half-life ([1]; oral, sampling up to 144 h post-dose (single-dose cohorts and 5 mg multiple-dose cohort), range, read-out: t1/2 (converted)): 22 to 34 h
AUC(0-inf) [1, 3]: 2650 ± 1200 ng·h/mL
Cmax [1, 3]: 185 ± 118 ng/mL
Tmax ([1]; oral, single dose 40 mg capsules, fasted, mean ± SD, read-out: Tmax): 3.4 ± 1.1 h
half-life ([1]; oral, single dose 40 mg capsules, fasted, mean ± SD, read-out: t1/2 (converted)): 27 ± 3.1 h
AUC(0-inf) [1, 4]: 2300 ± 1060 ng·h/mL
Cmax [1, 4]: 154 ± 77.6 ng/mL
Tmax ([1]; oral, single dose 60 mg capsules, fasted, mean ± SD, read-out: Tmax): 3 ± 1.2 h
half-life ([1]; oral, single dose 60 mg capsules, fasted, mean ± SD, read-out: t1/2 (converted)): 25 ± 2.1 h
AUC(0-inf) [1, 5]: 122 ± 25.7 ng·h/mL
Cmax [1, 5]: 9.81 ± 1.56 ng/mL
Tmax ([1]; single dose 1.25 mg oral solution, fasted, mean ± SD, read-out: Tmax): 1.3 ± 0.44 h
half-life ([1]; single dose 1.25 mg oral solution, fasted, mean ± SD, read-out: t1/2 (converted)): 22 ± 5.5 h
AUC(0-inf) [1, 6]: 320 ± 66.3 ng·h/mL
Cmax [1, 6]: 22.7 ± 4.74 ng/mL
Tmax ([1]; single dose 2.5 mg oral solution, fasted, mean ± SD, read-out: Tmax): 1.6 ± 0.8 h
half-life ([1]; single dose 2.5 mg oral solution, fasted, mean ± SD, read-out: t1/2 (converted)): 29 ± 9 h
AUC(0-inf) [1, 7]: 590 ± 93.7 ng·h/mL
Cmax [1, 7]: 48.1 ± 7.05 ng/mL
Tmax ([1]; single dose 5 mg oral solution, fasted, mean ± SD, read-out: Tmax): 1.3 ± 0.41 h
half-life ([1]; single dose 5 mg oral solution, fasted, mean ± SD, read-out: t1/2 (converted)): 25 ± 9.4 h
AUC(0-inf) [1, 8]: 1650 ± 464 ng·h/mL
Cmax [1, 8]: 95.2 ± 19.3 ng/mL
Tmax ([1]; single dose 10 mg oral solution, fasted, mean ± SD, read-out: Tmax): 2.2 ± 1.3 h
half-life ([1]; single dose 10 mg oral solution, fasted, mean ± SD, read-out: t1/2 (converted)): 29 ± 4.3 h
AUC(0-inf) [1, 9]: 2960 ± 963 ng·h/mL
Cmax [1, 9]: 167 ± 29.1 ng/mL
Tmax ([1]; single dose 20 mg oral solution, fasted, mean ± SD, read-out: Tmax): 1.9 ± 1 h
half-life ([1]; single dose 20 mg oral solution, fasted, mean ± SD, read-out: t1/2 (converted)): 29 ± 5 h
Tmax ([1]; single-dose oral solution, fasted, range across 1.25-20 mg, read-out: Tmax (time of median peak concentrations)): 1.3 to 2.2 h
half-life ([1]; single-dose oral solution, fasted, range across 1.25-20 mg, read-out: apparent terminal elimination t1/2): 22 to 29 h
mean absolute oral bioavailability ([2]; oral solution): 70%
t1/2 after intravenous administration ([2]; sampling up to 144 h): 29 h
